Data published in US20110189670A1, “Circulating Tumor and Tumor Stem Cell Detection Using Genomic Specific Probes” (priority 2008, published 2011).

Tested on: peripheral blood lymphocytes
Experiment: Cytokinesis-block micronucleus (CBMN) assay, spontaneous and NNK-induced chromosomal damage (MN, NPBs, NBUDs)
Format: cell-based, human
Details: 0.24 mM NNK, 2 hours
Description: The CBMN test was performed using the cytochalasin B technique described by Fenech and Morley and following recommendations from The International Collaborative Project on Micronucleus Frequency in Human Populations (HUMN Project) (22) to measure MN, NPBs and NBUDs in untreated cells and NNK-treated cells. Duplicate lymphocyte cultures were prepared for each study subject. Each culture contained 2.0×10^6 cells in 5 mL RPM1 1640 medium supplemented with 100 U/mL penicillin, 100 μg/mL streptomycin, 10% fetal bovine serum, and 2 mM L-glutamine (Gibco-Invitrogen, Carlsbad, Calif.) and 1% phytohemagglutinin (Remel, Lenexa, Kans.). For the cultures treated with NNK, 24 hours after initiation, the PBLs were centrifuged and the supernatant growth medium was removed and reserved. The PBLs were resuspended in 5 mL of serum-free RPM1 1640 medium supplemented with 0.24 mM NNK (CAS No 64091-91-4, National Cancer Institute, Midwest Carcinogen Repository, Kansas City, Mo.) and incubated at 37° C. in the presence of 5% COz for 2 hours. Next, the PBLs were washed twice with serum-free RPM1 1640, transferred to clean tubes and re-incubated for 48 hours in the reserved supernatant At 44 hours after initiation, cells were blocked in cytokinesis by adding cytochalasin B (Sigma, St Louis, Mo.; final concentration 4 μg/mL). Similarly, cultures for the determination of spontaneous damage (untreated cells) were handled in the same manner, with the exception of treatment with NNK. The total incubation time for all cultures was 72 hours. After incubation, the cells were fixed in 3:1 methanol:glacial acetic acid, dropped onto clean microscopic slides, air-dried and stained with Giemsa stain. For each sample, 1000 binucleated cells were scored blindly using a Nikon E-400 light optical microscope following the scoring criteria outlined by HUMN Project (2,11,23); the numbers of MN, NPBs, and NBUDs per 1000 binucleated cells were recorded For quality control, 20% of the slides were randomly selected and blindly rescored and the results compared with the original scoring
Tobacco smoke carcinogens and individual susceptibility play key roles in determining risk of lung cancer. There are a variety of biomarkers evaluating susceptibility to the carcinogenic effects of benzo[a]pyrene; however, no assays specifically evaluate susceptibility to the nicotine-derived nitrosamine 4-(methylnitrosamino)-1-(3-pyridyl)-1-butanone (NNK), a potent inducer of lung adenocarcinoma. In this case-control study, the inventors modified the cytokinesis-block micronucleus (CBMN) assay, an established biomarker for DNA damage and genomic instability, to evaluate susceptibility to NNK by measuring the frequency of NNK-induced chromosomal damage endpoints (micronuclei [MN]; nucleoplasmic bridges [NPBs] and nuclear buds “BUDS]) per 1000 binucleated peripheral blood lymphocytes. […] Forty-seven percent of the cases (compared with 12% of the controls) had ≧4 spontaneous MN, 66% of the cases (and no controls) had ≧4 spontaneous NPBs, and 25% of cases (versus 5% of controls) had ≧1 spontaneous NBUDs (P<001). Similarly, 40% of the cases (versus 6% of the controls) had ≧5 NNK-induced MN, 89% of the cases (and no controls) had ≧6 induced NPBs, and 23% of the cases (vs 2% of the controls had 2 induced NBUDs (P<001). As continuous variables, spontaneous MN, NPBs and NBUDs were associated with 2-, 29-, and 6-fold increases in risk for cancer. Similarly, NNK-induced 2 3-, 45.5-, and 10-fold increases in risk for cancer. The inventors also evaluated the use of results from the CBMN assay to predict cancer risk based on the numbers of MN, NPBs, and NBUDs defined by percentile cut-points in control data. The probability of being a cancer patient were 96%, 98% and 100% when using the 95th percentiles of spontaneous and NNK-induced MN, NPBs and NBUDs, respectively, in combination. […]

In the case of `CN(CCCC(=O)c1cccnc1)N=O` [NNK, 4-(methylnitrosamino)-1-(3-pyridyl)-1-butanone], the “subjects with 2 induced NBUDs per 1000 binucleated peripheral blood lymphocytes” value (lung cancer cases (139)) is reported as 23%, the “subjects with ≧5 NNK-induced MN per 1000 binucleated peripheral blood lymphocytes” value (lung cancer cases (139)) is reported as 40% and the “subjects with ≧6 induced NPBs per 1000 binucleated peripheral blood lymphocytes” value (lung cancer cases (139)) is reported as 89%. The “subjects with 2 induced NBUDs per 1000 binucleated peripheral blood lymphocytes” value (matched controls (130)) was 2%, the “subjects with ≧5 NNK-induced MN per 1000 binucleated peripheral blood lymphocytes” value (matched controls (130)) was 6% and the “subjects with ≧6 induced NPBs per 1000 binucleated peripheral blood lymphocytes” value (matched controls (130)) was “no controls”.
